SMILES strings stand for the structures. The source made the active and inactive calls.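 The calls were made as follows: active = maximal percent inhibition of the deubiquitinase OTUD3 of at least 30% across the tested doses; inactive = the rest.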 Bounds are passed on as bounds.

The experiment deals with OTU domain-containing protein 3 (Homo sapiens) (UniProt Q5T2D3). Kind of experiment: Validation of screening hits, potency titration, in vitro enzymatic, OTU domain-containing protein 3 DUB inhibitors (AID 1645868). The note with it: purified OTUD3, ubiquitin-rhodamine cleavage fluorescence, 2 h.
OTU domain-containing protein 3 (Homo sapiens), sequence (Q5T2D3 whole entry, looked up, the tested form may be a part): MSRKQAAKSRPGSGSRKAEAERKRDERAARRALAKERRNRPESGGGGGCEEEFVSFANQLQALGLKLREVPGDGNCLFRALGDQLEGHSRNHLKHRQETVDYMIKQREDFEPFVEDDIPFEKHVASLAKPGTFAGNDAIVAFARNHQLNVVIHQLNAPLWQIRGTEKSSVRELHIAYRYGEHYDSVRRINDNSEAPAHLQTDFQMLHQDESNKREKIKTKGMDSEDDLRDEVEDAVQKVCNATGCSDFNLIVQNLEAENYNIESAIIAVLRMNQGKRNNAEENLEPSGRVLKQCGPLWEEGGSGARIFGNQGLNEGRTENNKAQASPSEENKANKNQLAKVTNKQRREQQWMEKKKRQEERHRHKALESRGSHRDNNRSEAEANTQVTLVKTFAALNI
As to `Cc1cccc(NC(=O)c2nc(N3CCSCC3)c3cnn(C)c3n2)c1`, the IC50 was > 50 µM (inactive).
The same measure for `Cn1c(SCCOc2ccc(Cl)cc2)nnc1-c1ccc2c(c1)OCCO2`: > 50 µM (inactive); for `Cc1ccc(NC(=O)Cn2c(Nc3cccc(C)c3)nc(C)cc2=O)cc1`: 31 µM; for `O=C(CSc1nnnn1-c1ccccc1)Nc1ccccc1`: > 50 µM (inactive).
Regarding `CCCc1nc2sc3c(NCCc4ccc(OC)c(OC)c4)ncnc3c2c2c1CCC2`, the IC50 is > 50 µM (inactive).
On to `O=C(CNC(=O)OCc1ccccc1)Nc1ccc(Br)cc1C(=O)c1ccccc1Cl`, for which the IC50 was 13.4 µM.
With `CCOc1ccccc1C(=O)Oc1ccc2c(C)cc(=O)oc2c1`, the IC50 is 32.4 µM.
Consider `C/C=C\C1=CC(=O)[C@]23C[C@H]2[C@]2(C)CO[C@@]1(O)[C@@]3(O)O2`, for which the IC50 was > 50 µM (inactive).
Regarding `Fc1ccc(Nc2nc(Nc3cccc(F)c3)nc3nccnc23)cc1`, the IC50 is > 50 µM (inactive).
Take `COc1cccc(NC(=O)Cn2c(COc3ccccc3)nc3ccccc32)c1`: the IC50 is > 50 µM (inactive).
The same measure for `COc1ccc(C(=O)CSc2ccc3nnc(CCNC(=O)c4ccc(OC)cc4)n3n2)cc1`: > 50 µM (inactive); for `O=c1[nH]cccc1NS(=O)(=O)c1ccc(F)cc1`: > 50 µM (inactive).
On to `CCn1ccc2c(cc(C(=O)Nc3cc(F)ccc3F)n2C)c1=O`, for which the IC50 was > 50 µM (inactive).
The value for `CC[C@H](C)[C@H](NC(=O)[C@H]([C@@H](C)CC)N(C)C(C)=O)C(=O)N[C@H](C(=O)N[C@@H](CC(C)C)C(=O)C1(C)CO1)[C@@H](C)O` (some centres undefined) was > 50 µM (inactive); that for `N#C/C(=C/c1sc(N2CCOCC2)nc1-c1ccccc1)c1ccccn1` was > 50 µM (inactive); that for `COc1ccc2nc3c(cc2c1)c(=O)n(C)c1c3c(=O)n(-c2ccccc2)c(=O)n1-c1ccccc1` was > 50 µM (inactive).
For `Cc1cccc(NC(=O)c2ccn(COc3ccc(F)cc3F)n2)c1C`, the IC50 was > 50 µM (inactive).
Regarding `O=C(CN1C=NC2=NS(=O)(=O)c3ccccc3N21)Nc1cc(F)ccc1F`, the IC50 is 31.8 µM.
As to `O=C(NCc1cccnc1)c1cnn2c(C(F)(F)F)cc(-c3ccc(F)cc3)nc12`, the IC50 was > 50 µM (inactive).
With `Cc1cccc(NC(=O)Cn2c(N3CCOCC3)nc3cc(C)n(C)c3c2=O)c1`, the IC50 is 40.6 µM.
The value for `CCOC(=O)c1cc2c(ccn2C)n1Cc1cccc2ccccc12` was > 50 µM (inactive); that for `CCOc1ccc(NS(=O)(=O)c2ccc(NC(=O)Nc3ccccc3)cc2)cc1` was 37.2 µM.
As for `CN(C)Cc1ccc(C(=O)Nc2ccc(-c3nccs3)cc2)cc1`, the IC50 was > 50 µM (inactive).
On to `CC(C)C1Cc2c(sc3nc(SCC(=O)Nc4cccc5ccccc45)nc(N)c23)CO1` (centres undefined), for which the IC50 was > 50 µM (inactive).
For the compound `O=C(Cc1ccccc1F)N1CCC2(CC1)CC1(CO2)Nc2ccccc2-n2cccc21` (centres undefined), the IC50 was > 50 µM (inactive).
As for `N#Cc1ccc(COC(=O)c2ccc3ccccc3n2)cc1`, the IC50 is > 50 µM (inactive).
For the compound `COc1ccc(-c2cc(C(=O)N3CCN(c4ccc([N+](=O)[O-])cc4)CC3)[nH]n2)cc1`, the IC50 is > 50 µM (inactive).
As for `O=C(COc1nsnc1N1CCOCC1)Nc1ccccc1F`, the IC50 was > 50 µM (inactive).
Regarding `Cc1nc(-c2ccc(NC(=O)N3CCN(c4ccccn4)CC3)cc2)no1`, the IC50 was > 50 µM (inactive).
Consider `CC(C)(C)N=C1Nc2ncccc2NC12CCCN(C(=O)c1ccccc1)C2` (centres undefined), for which the IC50 was > 50 µM (inactive).
`COc1cc(O)c2c(=O)c(-c3ccc(O)cc3)coc2c1`: the IC50 was > 50 µM (inactive).
The value for `COc1ccc(CCNC(=O)[C@H](CCSC)NC(=O)N2CCn3c2nc2ccccc23)cc1OC` was > 50 µM (inactive).
The same measure for `CC(C)CCCCCCCCCCC(=O)N(C)[C@H](CO)C(=O)N[C@H](C)C(=O)NCC(=O)N(C)C1C(=O)N[C@@H](C)C(=O)NC(C(=O)O)Cc2ccc(O)c(c2)-c2cc1ccc2O` (some centres undefined): > 50 µM (inactive); for `Cc1nnc(NC(=O)C2CCN(c3ccc(S(N)(=O)=O)cc3[N+](=O)[O-])CC2)o1`: 15.6 µM.
